Measurements published in ChEMBL document CHEMBL1145143, “5'-Homoaristeromycin. Synthesis and antiviral activity against orthopox viruses” (Bioorg Med Chem Lett, 2005).
Values after ≈ are worked out from the molar mass of the structure shown.

Experiments:
[1] = Cytotoxic concentration against cowpox, monkeypox and vaccinia virus in vero 76 cells; type: functional; conditions: Orthopoxvirus vaccinia
Cowpox virus = assay: Concentration required for 50% inhibition of adohcy hydrolase by the compound against cowpox virus in vero 76 cells; type: functional, organism-based
Vaccinia virus = assay: Concentration required for 50% inhibition of adohcy hydrolase by the compound against vaccinia virus in vero 76 cells; type: functional, organism-based; conditions: Orthopoxvirus vaccinia
[2] = Concentration required for 50% inhibition of adohcy hydrolase by the compound against monkeypox virus in vero 76 cells; type: functional, cell-based

Molecule `Nc1ncnc2c1ncn2[C@@H]1C[C@H](CCO)[C@@H](O)[C@H]1O` has a CC50 [1] of over 100 µg/mL, an IC50 (Cowpox virus) of 0.12 µg/mL (≈ 0.43 µM) and an IC50 (Vaccinia virus) of 1.2 µg/mL (≈ 4.3 µM). It also gave an IC50 [2] of 0.12 µg/mL (≈ 0.43 µM).
